Several values for one entry are separate records, joined by “and”; a condition that tells them apart may be missing. Equal values may be shown once. Read-outs that look alike come from different tables or passages of the source.
Key:
SARS-CoV-2 main protease [1] = target: T1, SARS-CoV-2 main protease (Severe acute respiratory syndrome coronavirus 2, UniProt P0DTD1); assay: biochemical; assay type: biochemical; settings: for IC50: IC50 Value SARS-CoV-2 Main Protease
[2] = tested on: SARS-CoV-2 spike protein–human ACE2 interaction; assay type: binding, SARS-CoV-2 / human
[3] = tested on: C. perfringens neuraminidase; assay type: biochemical, Clostridium perfringens; settings: for IC50: read-out: IC50 Value C. perfringen Neuraminidase
SARS-CoV-2 main protease [4] = target: T1, SARS-CoV-2 main protease; settings: read-out: IC50 Value SARS-CoV-2 Main Protease; cited from earlier work

SMILES | Potency Index, SARS-CoV-2 main protease (SARS-CoV-2 main protease [1]) | Potency Index, SARS-CoV-2 spike protein [2] | Ratio, SARS-CoV2 spike protein [2] | % Inhibition C. perfringen Neuraminidase [3] | Potency Index*, bacterial neuraminidase, compared to std influenza A [3] | Potency Index, bacterial (C. perfringens) neuraminidase [3] | IC50 [3] | inhibition at 100 µg/mL (SARS-CoV-2 main protease [1]) [%] | % Inhibition SARS-CoV-2 Spike Protein–Human ACE2 Interaction [2] | IC50 (SARS-CoV-2 main protease [1]) [µM] | IC50 (SARS-CoV-2 main protease [4]) [µM]
CCCCCc1cc(O)c2c(c1)OC(C)(C)c1ccc(C)cc1-2 [CBN, cannabinol] | 100 | 39.18 | 1.39 | 34.87 (± 3.08) % | 100.00 | 100 | – | – | – | – | –
O=c1c(O)c(-c2ccc(O)c(O)c2)oc2cc(O)cc(O)c12 [quercetin, reference compound] | – | – | – | – | – | – | ~11 µM and 11 µM | – | – | – | –
CCCCCc1cc(O)c2c(c1)OC(C)(CCC=C(C)C)C=C2 (centres unmarked) [CBC, cannabichromene] | 100 | 4.99 | 1.05 | – | 56.89 | 5.18 | 56.9 µM | 75 | 95.25 (± 4.54) % | – | –
C=C(C)C1CCC(C)(O)C2Oc3cc(CCCCC)cc(O)c3C12 (centres unmarked) [CBE, cannabielsoin] | 100 | 35.75 | 1.36 | – | – | – | – | 80.3 | – | – | –
COc1cc(O)c2c(c1)O[C@H](c1ccccc1)CC2=O [pinostrobin, reference compound] | – | – | – | – | – | – | – | – | 100% | – | –
CCCCCc1cc(O)c(C/C=C(\C)CCC=C(C)C)c(O)c1 [CBG, cannabigerol] | – | 2.46 | 1.02 | – | 6.92 | 0.63 | 6.9 µM and 6.92 µM | > 80 | 97.60 (± 4.16) % | 5.68 | –
C=C(C)[C@@H]1CCC(C)=C[C@H]1c1c(O)cc(CCCCC)cc1O [CBD, cannabidiol, reference compound] | 4.43 | 77.62 | 1.78 | – | 4.53 | 0.41 | 4.5 µM and 4.53 µM | – | – | – | 1.86
CCCCCc1cc(O)c2c(c1)OC(C)(C)[C@@H]1CCC(C)=C[C@@H]21 [THC, tetrahydrocannabinol, reference compound] | 38.64 | 72.94 | 1.73 | – | 20.30 | 1.85 | ~20.3 µM and 20.3 µM | – | – | – | 16.2
CCCCCc1cc(O)c2c(c1)OC1(C)CCC3C1C2C3(C)C (centres unmarked) [CBL, cannabicyclol] | – | 54.53 | 1.55 | – | 96.12 | 8.75 | 96.1 µM | > 80 | – | 5.67 | –
CCCCCc1cc(O)c2c(c1)oc1c(C)ccc(C(C)C)c12 [CBF, cannabifuran] | 100 | – | 1.01 | – | – | – | – | 65.3 | 99.22 (± 1.36) % | – | –
